According to patent US11453681B2, “Substituted eneoxindoles and uses thereof” (Gilead Sciences, Inc., priority 2019, dated 2022):

Target: human HPK1 (MAP4K1) (Homo sapiens (Human), UniProt Q92918)
Experiment: HPK1 IC50 Assay
Assay type: biochemical
Details: recombinant HPK1 kinase domain 0.15 nM, synthetic peptide substrate STK S1, 3 hours at 25° C., time-resolved fluorescence energy transfer; geometric mean of multiple experiments

Sequence of human HPK1 (MAP4K1) (Q92918 17-274): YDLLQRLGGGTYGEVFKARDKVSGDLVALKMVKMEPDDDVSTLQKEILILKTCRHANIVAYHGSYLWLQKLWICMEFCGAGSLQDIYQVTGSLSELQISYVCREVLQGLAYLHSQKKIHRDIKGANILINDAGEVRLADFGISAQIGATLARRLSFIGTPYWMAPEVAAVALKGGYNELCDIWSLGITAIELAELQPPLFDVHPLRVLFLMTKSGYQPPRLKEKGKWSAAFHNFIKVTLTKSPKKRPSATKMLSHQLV

Compound	IC50 [nM]
Cc1c(-c2cc3c(cc2F)NC(=O)/C3=C\c2cc3ccccc3[nH]2)cnc2c1NCCO2 [Compound C51, (Z)-3-((1H-indol-2-yl)methylene)-6-fluoro-5-(8-methyl-2,3-dihydro-1H-pyrido[2,3-b][1,4]oxazin-7-yl)indolin-2-one]	0.16
Cc1c(-c2cc(F)c3c(c2)/C(=C/c2cc4ccccc4[nH]2)C(=O)N3)cnc2c1NCCO2 [Compound C53, (Z)-3-((1H-indol-2-yl)methylene)-7-fluoro-5-(8-methyl-2,3-dihydro-1H-pyrido[2,3-b][1,4]oxazin-7-yl)indolin-2-one]	0.16
Cc1c(-c2cc(F)c3c(c2C)/C(=C/c2cc4cnccc4[nH]2)C(=O)N3)cnc2c1NCCO2 [Compound C54, (Z)-3-((1H-pyrrolo[3,2-c]pyridin-2-yl)methylene)-7-fluoro-4-methyl-5-(8-methyl-2,3-dihydro-1H-pyrido[2,3-b][1,4]oxazin-7-yl)indolin-2-one]	0.27
Cc1c(-c2cnc3c(c2)/C(=C/c2cc4ccccc4[nH]2)C(=O)N3)cnc2c1NCCO2 [Compound C55, (Z)-3-((1H-indol-2-yl)methylene)-5-(8-methyl-2,3-dihydro-1H-pyrido[2,3-b][1,4]oxazin-7-yl)-1,3-dihydro-2H-pyrrolo[2,3-b]pyridin-2-one]	1.24
Cc1c(-c2cc(F)c3c(c2C)/C(=C/c2cc4ccccc4[nH]2)C(=O)N3)cnc2c1NCCO2 [Compound C56, (Z)-3-((1H-indol-2-yl)methylene)-7-fluoro-4-methyl-5-(8-methyl-2,3-dihydro-1H-pyrido[2,3-b][1,4]oxazin-7-yl)indolin-2-one]	0.51
Cc1c(-c2ccc3c(c2)/C(=C/c2cc4ncccc4[nH]2)C(=O)N3)cnc2c1NCCO2 [Compound C57, (Z)-3-((1H-pyrrolo[3,2-b]pyridin-2-yl)methylene)-5-(8-methyl-2,3-dihydro-1H-pyrido[2,3-b][1,4]oxazin-7-yl)indolin-2-one]	0.05
Cc1c(-c2ccc3c(c2)/C(=C/c2cc4ccncc4[nH]2)C(=O)N3)cnc2c1NCCO2 [Compound C58, (Z)-3-((1H-pyrrolo[2,3-c]pyridin-2-yl)methylene)-5-(8-methyl-2,3-dihydro-1H-pyrido[2,3-b][1,4]oxazin-7-yl)indolin-2-one]	0.11
Cc1c(-c2ccc3c(c2)/C(=C/c2nc4ccccc4[nH]2)C(=O)N3)cnc2c1NCCO2 [Compound C59, (Z)-3-((1H-benzo[d]imidazol-2-yl)methylene)-5-(8-methyl-2,3-dihydro-1H-pyrido[2,3-b][1,4]oxazin-7-yl)indolin-2-one]	0.28
Cc1c(-c2ccc3c(c2)/C(=C/c2cc4cnccc4[nH]2)C(=O)N3)cnc2c1NCCO2 [Compound C60, (Z)-3-((1H-pyrrolo[3,2-c]pyridin-2-yl)methylene)-5-(8-methyl-2,3-dihydro-1H-pyrido[2,3-b][1,4]oxazin-7-yl)indolin-2-one]	0.06
Cc1c(-c2ccc3c(c2)/C(=C/c2cc4cccnc4[nH]2)C(=O)N3)cnc2c1NCCO2 [Compound C61, (Z)-3-((1H-pyrrolo[2,3-b]pyridin-2-yl)methylene)-5-(8-methyl-2,3-dihydro-1H-pyrido[2,3-b][1,4]oxazin-7-yl)indolin-2-one]	1.1
Cc1c(-c2ccc3c(c2)/C(=C/c2cc4ccccc4[nH]2)C(=O)N3)cnc2c1NCCO2 [Compound C62, (Z)-3-((1H-indol-2-yl)methylene)-5-(8-methyl-2,3-dihydro-1H-pyrido[2,3-b][1,4]oxazin-7-yl)indolin-2-one]	0.05
Cc1c(-c2cc(F)c3c(c2C)/C(=C/c2cc4ccncc4[nH]2)C(=O)N3)cnc2c1NCCO2 [Compound C63, (Z)-3-((1H-pyrrolo[2,3-c]pyridin-2-yl)methylene)-7-fluoro-4-methyl-5-(8-methyl-2,3-dihydro-1H-pyrido[2,3-b][1,4]oxazin-7-yl)indolin-2-one]	0.41
Cc1c(-c2cc(F)c3c(c2C)/C(=C/c2cc4ncccc4[nH]2)C(=O)N3)cnc2c1NCCO2 [Compound C64, (Z)-3-((1H-pyrrolo[3,2-b]pyridin-2-yl)methylene)-7-fluoro-4-methyl-5-(8-methyl-2,3-dihydro-1H-pyrido[2,3-b][1,4]oxazin-7-yl)indolin-2-one]	0.31
Cc1c(-c2cc(F)c3c(c2C)/C(=C/c2cn[nH]c2)C(=O)N3)cnc2c1NCCO2 [Compound C65, (Z)-3-((1H-pyrazol-4-yl)methylene)-7-fluoro-4-methyl-5-(8-methyl-2,3-dihydro-1H-pyrido[2,3-b][1,4]oxazin-7-yl)indolin-2-one]	1.03
Cc1c(-c2cc(Cl)c3c(c2)/C(=C/c2cn[nH]c2)C(=O)N3)cnc2c1NCCO2 [Compound C66, (Z)-3-((1H-pyrazol-4-yl)methylene)-7-chloro-5-(8-methyl-2,3-dihydro-1H-pyrido[2,3-b][1,4]oxazin-7-yl)indolin-2-one]	6.9
Cc1cc(-c2cnc3c(c2C)NCCO3)cc2c1NC(=O)/C2=C\c1cn[nH]c1 [Compound C67, (Z)-3-((1H-pyrazol-4-yl)methylene)-7-methyl-5-(8-methyl-2,3-dihydro-1H-pyrido[2,3-b][1,4]oxazin-7-yl)indolin-2-one]	4.33
Cc1n[nH]cc1/C=C1\C(=O)Nc2ccc(-c3cnc4c(c3C)NCCO4)cc21 [Compound C68, (Z)-3-((3-methyl-H-pyrazol-4-yl)methylene)-5-(8-methyl-2,3-dihydro-1H-pyrido[2,3-b][1,4]oxazin-7-yl)indolin-2-one]	0.32
Cc1c(-c2ccc3c(c2)/C(=C/c2cn[nH]c2)C(=O)N3)cnc2c1NCCO2 [Compound C69, (Z)-3-((1H-pyrazol-4-yl)methylene)-5-(8-methyl-2,3-dihydro-1H-pyrido[2,3-b][1,4]oxazin-7-yl)indolin-2-one]	0.26
Cc1c(-c2ccc3c(c2)/C(=C/c2c[nH]c4ccccc24)C(=O)N3)cnc2c1NCCO2 [Compound C70, (Z)-3-((1H-indol-3-yl)methylene)-5-(8-methyl-2,3-dihydro-1H-pyrido[2,3-b][1,4]oxazin-7-yl)indolin-2-one]	0.42
O=C1Nc2ccc(-c3cnc4c(c3)NCCO4)cc2/C1=C/c1ncc[nH]1 [Compound C71, (Z)-3-((1H-imidazol-2-yl)methylene)-5-(2,3-dihydro-1H-pyrido[2,3-b][1,4]oxazin-7-yl)indolin-2-one]	66.7
Cc1c(-c2ccc3c(c2)/C(=C/c2ncc[nH]2)C(=O)N3)cnc2c1NCC1(CC1)O2 [Compound C72, (Z)-3-((1H-imidazol-2-yl)methylene)-5-(8′-methyl-1′,2′-dihydrospiro[cyclopropane-1,3′-pyrido[2,3-b][1,4]oxazin]-7′-yl)indolin-2-one]	2.13
